# In patent publication US10597388B2, “Pyridazinone herbicides” (FMC CORPORATION, priority 2014, dated 2020):
# Experiments:
# Format in all cases: in vivo
# [1] = test system: blackgrass (Alopecurus myosuroides); experiment: Test A greenhouse herbicide test, postemergence
# Summary of the method: (§1)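 Greenhouse postemergence test: formulated chemicals sprayed on one- to two-leaf plants (2 to 10 cm), grown in loam soil blended with sand. Injury assessed visually about 10 d later against untreated controls, scored 0 (no effect) to 100 (complete control).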
# [2] = test system: galium (catchweed bedstraw, Galium aparine); experiment: Test A greenhouse herbicide test, postemergence
# Summary of the method: as §1
# [3] = test system: barnyardgrass (Echinochloa crus-galli); experiment: Test C greenhouse herbicide test, pre- and postemergence
# Summary of the method: (§2)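 Preemergence: seeds sown in a loam soil–sand blend and sprayed with test chemicals in a non-phytotoxic solvent mixture containing surfactant. Postemergence: plants grown in peat-based medium and treated at 2 to 18 cm (1- to 4-leaf stage). After 13 to 15 d in a greenhouse, injury was visually rated 0–100 against controls.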
# [4] = test system: blackgrass (Alopecurus myosuroides); experiment: as above
# Summary of the method: as §2
# [5] = test system: galium (catchweed bedstraw, Galium aparine); experiment: as above
# Summary of the method: as §2
# [6] = test system: nutsedge, yellow (yellow nutsedge, Cyperus esculentus); experiment: as above
# Summary of the method: as §2
# [7] = test system: pigweed (Amaranthus retroflexus); experiment: as above
# Summary of the method: as §2
# [8] = test system: ragweed (common ragweed, Ambrosia elatior); experiment: as above
# Summary of the method: as §2
# [9] = test system: ryegrass, Italian (Italian ryegrass, Lolium multiflorum); experiment: as above
# Summary of the method: as §2
# [10] = test system: soybean (Glycine max); experiment: as above
# Summary of the method: as §2
# [11] = test system: velvetleaf (Abutilon theophrasti); experiment: as above
# Summary of the method: as §2
# [12] = test system: chickweed (common chickweed, Stellaria media); experiment: Test C greenhouse herbicide test, postemergence
# Summary of the method: (§3)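 Ratings are visual scores from 0 (no effect) to 100 (complete control), made against controls 13–15 d after treatment. Postemergence sprays were applied in the greenhouse to plants 2–18 cm tall (1- to 4-leaf stage) in peat-moss/vermiculite potting medium.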
# [13] = test system: kochia (Kochia scoparia); experiment: Test C greenhouse herbicide test, postemergence
# Summary of the method: as §3
# [14] = test system: oat, wild (wild oat, Avena fatua); experiment: Test C greenhouse herbicide test, postemergence
# Summary of the method: as §3
# [15] = 125 g ai/ha, 0 to 100 scale where 0 is no effect and 100 is complete control
# [16] = 500 g ai/ha, 0 to 100 scale, 0 is no effect, 100 is complete control
# [17] = Postemergence, 31 g ai/ha, 0 to 100 scale (0 no effect, 100 complete control)
# [18] = Postemergence, 125 g ai/ha, scale 0 to 100, 0 is no effect, 100 is complete control
# [19] = Postemergence, 250 g ai/ha, scale 0 to 100, 0 no effect, 100 complete control, 13 to 15 d
# [20] = Preemergence, 31 g ai/ha, scale 0 to 100, 0 is no effect, 100 is complete control
# [21] = Preemergence, 62 g ai/ha, scale 0 to 100, 0 is no effect, 100 is complete control
# [22] = Preemergence, 125 g ai/ha, scale 0 to 100, 0 is no effect, 100 is complete control
# [23] = Preemergence, 250 g ai/ha, scale 0 to 100, 0 no effect, 100 complete control
# [24] = postemergence, 62 g ai/ha, scale 0 to 100, 0 no effect, 100 complete control
smiles,measurement,setting,value
Cc1ccc2ccccc2c1-c1c(OC(=O)OC(C)C)c(C)nn(C)c1=O [Compound 72],"Plant response rating, Blackgrass",[1]; [15],70
same,Blackgrass plant response rating,[1]; [16],90
same,"Plant response rating, Galium",[2]; [15],90
same,Galium plant response rating,[2]; [16],100
same,Barnyardgrass plant response rating,[3]; [17],35
same,"Plant response rating, Barnyardgrass",[3]; [18],50
same,"Plant response rating, Barnyardgrass",[3]; [19],65
same,"Plant response rating, Barnyardgrass",[3]; [20],10
same,"Plant response rating, Barnyardgrass",[3]; [21],20
same,"Plant response rating, Barnyardgrass",[3]; [22],55
same,Barnyardgrass plant response rating,[3]; [23],80
same,Barnyardgrass plant response rating,[3]; [24],40
same,Blackgrass plant response rating,[4]; [17],60
same,"Plant response rating, Blackgrass",[4]; [18],80
same,"Plant response rating, Blackgrass",[4]; [19],90
same,"Plant response rating, Blackgrass",[4]; [20],40
same,"Plant response rating, Blackgrass",[4]; [21],50
same,"Plant response rating, Blackgrass",[4]; [22],70
same,Blackgrass plant response rating,[4]; [23],90
same,Blackgrass plant response rating,[4]; [24],70
same,Galium plant response rating,[5]; [17],80
same,"Plant response rating, Galium",[5]; [18],95
same,"Plant response rating, Galium",[5]; [19],95
same,"Plant response rating, Galium",[5]; [20],90
same,"Plant response rating, Galium",[5]; [21],90
same,"Plant response rating, Galium",[5]; [22],95
same,Galium plant response rating,[5]; [23],95
same,Galium plant response rating,[5]; [24],95
same,"Nutsedge, Yellow plant response rating",[6]; [17],30
same,"Plant response rating, Nutsedge, Yellow",[6]; [18],70
same,"Plant response rating, Nutsedge, Yellow",[6]; [19],85
same,"Plant response rating, Nutsedge, Yellow",[6]; [20],10
same,"Plant response rating, Nutsedge, Yellow",[6]; [21],10
same,"Plant response rating, Nutsedge, Yellow",[6]; [22],60
same,"Nutsedge, Yellow plant response rating",[6]; [23],70
same,"Nutsedge, Yellow plant response rating",[6]; [24],60
same,Pigweed plant response rating,[7]; [17],85
same,"Plant response rating, Pigweed",[7]; [18],95
same,"Plant response rating, Pigweed",[7]; [19],98
same,"Plant response rating, Pigweed",[7]; [20],90
same,"Plant response rating, Pigweed",[7]; [21],98
same,"Plant response rating, Pigweed",[7]; [22],98
same,Pigweed plant response rating,[7]; [23],100
same,Pigweed plant response rating,[7]; [24],90
same,Ragweed plant response rating,[8]; [17],80
same,"Plant response rating, Ragweed",[8]; [18],95
same,"Plant response rating, Ragweed",[8]; [19],90
same,"Plant response rating, Ragweed",[8]; [20],85
same,"Plant response rating, Ragweed",[8]; [21],90
same,"Plant response rating, Ragweed",[8]; [22],100
same,Ragweed plant response rating,[8]; [23],95
same,Ragweed plant response rating,[8]; [24],90
same,"Ryegrass, Italian plant response rating",[9]; [17],85
same,"Plant response rating, Ryegrass, Italian",[9]; [18],90
same,"Plant response rating, Ryegrass, Italian",[9]; [19],90
same,"Plant response rating, Ryegrass, Italian",[9]; [20],90
same,"Plant response rating, Ryegrass, Italian",[9]; [21],90
same,"Plant response rating, Ryegrass, Italian",[9]; [22],90
same,"Ryegrass, Italian plant response rating",[9]; [23],90
same,"Ryegrass, Italian plant response rating",[9]; [24],90
same,Soybean plant response rating,[10]; [17],10
same,"Plant response rating, Soybean",[10]; [18],15
same,"Plant response rating, Soybean",[10]; [19],30
same,"Plant response rating, Soybean",[10]; [20],80
same,"Plant response rating, Soybean",[10]; [21],0
same,"Plant response rating, Soybean",[10]; [22],0
same,Soybean plant response rating,[10]; [23],0
same,Soybean plant response rating,[10]; [24],15
same,Velvetleaf plant response rating,[11]; [17],45
same,"Plant response rating, Velvetleaf",[11]; [18],85
same,"Plant response rating, Velvetleaf",[11]; [19],95
same,"Plant response rating, Velvetleaf",[11]; [20],30
same,"Plant response rating, Velvetleaf",[11]; [21],45
same,"Plant response rating, Velvetleaf",[11]; [22],80
same,Velvetleaf plant response rating,[11]; [23],85
same,Velvetleaf plant response rating,[11]; [24],85
same,Chickweed plant response rating,[12]; [17],90
same,"Plant response rating, Chickweed",[12]; [18],90
same,"Plant response rating, Chickweed",[12]; [19],90
same,Chickweed plant response rating,[12]; [24],90
same,Kochia plant response rating,[13]; [17],60
same,"Plant response rating, Kochia",[13]; [18],90
same,"Plant response rating, Kochia",[13]; [19],90
same,Kochia plant response rating,[13]; [24],85
same,"Oat, Wild plant response rating",[14]; [17],85
same,"Plant response rating, Oat, Wild",[14]; [18],90
same,"Plant response rating, Oat, Wild",[14]; [19],95
same,"Oat, Wild plant response rating",[14]; [24],95
